Paper PMC5513037, “Examining the influence of specificity ligands and ATP-competitive ligands on the overall effectiveness of bivalent kinase inhibitors” (Proteome Science, 2017)

Experiments:
Experiment in all cases: KAM-matrix competition in K562 lysate;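 for 0.001 uM KAM: median log10 fold change of treatment over DMSO control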;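 for 0.01 uM KAM: median log10 fold change of treatment over DMSO control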;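 for 0.1 uM KAM: median log10 fold change of treatment over DMSO control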;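 for 1 uM KAM: median log10 fold change of treatment over DMSO control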;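 for 10 uM KAM: median log10 fold change of treatment over DMSO control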
Format in all cases: binding
MELK = target: T1, MELK (Homo sapiens, UniProt Q14680)
T1 construct: endogenous in cells; host or cells: K562
Method: (§1) Supplement 12953_2017_125_MOESM1_ESM.zip/MS_Supp Info.xlsx, sheet "KAM" | column: 10 uM KAM; 1 uM KAM; 0.1 uM KAM; 0.01 uM KAM; 0.001 uM KAM; RB50

TLK2 = target: T2, TLK2 (Homo sapiens, UniProt Q86UE8);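 for 0.001 uM KAM: median log10 fold change of treatment over DMSO control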;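 for 0.01 uM KAM: median log10 fold change of treatment over DMSO control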;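 for 0.1 uM KAM: median log10 fold change of treatment over DMSO control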;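 for 1 uM KAM: median log10 fold change of treatment over DMSO control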;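 for 10 uM KAM: median log10 fold change of treatment over DMSO control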
T2 construct: endogenous in cells; host or cells: K562
Method: as §1

TAOK1 = target: T3, TAOK1 (Homo sapiens, UniProt Q7L7X3)
T3 construct: endogenous in cells; host or cells: K562 cell lysate
T3 sequence (Q7L7X3 1-1001): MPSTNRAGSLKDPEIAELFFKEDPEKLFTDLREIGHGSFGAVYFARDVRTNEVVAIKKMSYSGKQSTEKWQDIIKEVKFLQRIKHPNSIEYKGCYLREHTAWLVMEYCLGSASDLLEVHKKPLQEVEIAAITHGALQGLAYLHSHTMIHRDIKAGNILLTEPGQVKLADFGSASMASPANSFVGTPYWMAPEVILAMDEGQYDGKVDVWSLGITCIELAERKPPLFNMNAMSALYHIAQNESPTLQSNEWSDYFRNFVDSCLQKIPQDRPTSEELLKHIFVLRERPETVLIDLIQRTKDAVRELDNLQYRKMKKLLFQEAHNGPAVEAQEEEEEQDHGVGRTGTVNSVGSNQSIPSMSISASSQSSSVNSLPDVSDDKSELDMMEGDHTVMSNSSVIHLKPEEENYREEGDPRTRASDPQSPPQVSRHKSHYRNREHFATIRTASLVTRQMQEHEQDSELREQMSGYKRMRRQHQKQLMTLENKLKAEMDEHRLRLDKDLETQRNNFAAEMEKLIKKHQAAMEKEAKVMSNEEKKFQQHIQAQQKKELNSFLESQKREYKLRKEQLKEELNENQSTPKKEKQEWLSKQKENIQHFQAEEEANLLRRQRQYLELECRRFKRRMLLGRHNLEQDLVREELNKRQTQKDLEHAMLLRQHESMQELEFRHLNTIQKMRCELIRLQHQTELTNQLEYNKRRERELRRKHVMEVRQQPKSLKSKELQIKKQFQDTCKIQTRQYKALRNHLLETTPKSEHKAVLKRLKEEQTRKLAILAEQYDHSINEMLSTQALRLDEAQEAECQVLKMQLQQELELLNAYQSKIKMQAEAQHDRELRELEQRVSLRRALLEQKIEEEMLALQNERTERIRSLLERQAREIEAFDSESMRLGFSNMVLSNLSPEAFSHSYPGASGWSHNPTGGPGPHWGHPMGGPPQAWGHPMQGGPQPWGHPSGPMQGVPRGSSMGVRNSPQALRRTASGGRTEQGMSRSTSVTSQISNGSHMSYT
Method: as §1

EPHA2 = target: T4, EPHA2 (Homo sapiens, UniProt P29317);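 for 0.001 uM KAM: median log10 fold change of treatment over DMSO control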;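 for 0.01 uM KAM: median log10 fold change of treatment over DMSO control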;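 for 0.1 uM KAM: median log10 fold change of treatment over DMSO control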;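 for 1 uM KAM: median log10 fold change of treatment over DMSO control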;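 for 10 uM KAM: median log10 fold change of treatment over DMSO control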
T4 construct: endogenous in cells; host or cells: K562
Method: as §1

PKN2 = target: T5, PKN2 (Homo sapiens, UniProt Q16513);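 for 0.001 uM KAM: median log10 fold change of treatment over DMSO control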;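 for 0.01 uM KAM: median log10 fold change of treatment over DMSO control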;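 for 0.1 uM KAM: median log10 fold change of treatment over DMSO control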;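 for 1 uM KAM: median log10 fold change of treatment over DMSO control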;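 for 10 uM KAM: median log10 fold change of treatment over DMSO control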
T5 construct: endogenous in cells; host or cells: K562
Method: as §1

RPS6KA5 = target: T6, RPS6KA5 (Homo sapiens, UniProt O75582)
T6 construct: endogenous in cells; host or cells: K562
Method: as §1

MAP3K1 = target: T7, MAP3K1 (Homo sapiens, UniProt Q13233)
T7 construct: endogenous in cells; host or cells: K562 cell lysate
Method: as §1

JAK1 = target: T8, JAK1 (Homo sapiens, UniProt P23458)
T8 construct: endogenous in cells; host or cells: K562
Method: as §1

HIPK3 = target: T9, HIPK3 (Homo sapiens, UniProt Q9H422);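 for 0.001 uM KAM: median log10 fold change of treatment over DMSO control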;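 for 0.01 uM KAM: median log10 fold change of treatment over DMSO control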;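 for 0.1 uM KAM: median log10 fold change of treatment over DMSO control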;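 for 1 uM KAM: median log10 fold change of treatment over DMSO control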;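 for 10 uM KAM: median log10 fold change of treatment over DMSO control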
T9 construct: endogenous in cells; host or cells: K562 cells (combined S0.8 and P0.8 lysate)
Method: as §1

OBSCN = target: T10, OBSCN (Homo sapiens, UniProt Q5VST9);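 for 0.001 uM KAM: median log10 fold change of treatment over DMSO control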;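 for 0.01 uM KAM: median log10 fold change of treatment over DMSO control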;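 for 0.1 uM KAM: median log10 fold change of treatment over DMSO control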;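 for 1 uM KAM: median log10 fold change of treatment over DMSO control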;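 for 10 uM KAM: median log10 fold change of treatment over DMSO control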
T10 construct: endogenous in cells; host or cells: K562
Method: as §1

PRKACA = target: T11, PRKACA (Homo sapiens, UniProt P17612);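 for 0.001 uM KAM: median log10 fold change of treatment over DMSO control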;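 for 0.01 uM KAM: median log10 fold change of treatment over DMSO control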;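 for 0.1 uM KAM: median log10 fold change of treatment over DMSO control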;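 for 1 uM KAM: median log10 fold change of treatment over DMSO control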;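 for 10 uM KAM: median log10 fold change of treatment over DMSO control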
T11 construct: endogenous in cells; host or cells: K562 lysate
Method: as §1

CDK5 = target: T12, CDK5 (Homo sapiens, UniProt Q00535)
T12 construct: endogenous in cells; host or cells: K562
Method: as §1

[1] = read-out: RB50 (the source's name)
[2] = KAM 0.001-10 uM, read-out: RB50 (the source's name)

T8 sequence (P23458 whole entry): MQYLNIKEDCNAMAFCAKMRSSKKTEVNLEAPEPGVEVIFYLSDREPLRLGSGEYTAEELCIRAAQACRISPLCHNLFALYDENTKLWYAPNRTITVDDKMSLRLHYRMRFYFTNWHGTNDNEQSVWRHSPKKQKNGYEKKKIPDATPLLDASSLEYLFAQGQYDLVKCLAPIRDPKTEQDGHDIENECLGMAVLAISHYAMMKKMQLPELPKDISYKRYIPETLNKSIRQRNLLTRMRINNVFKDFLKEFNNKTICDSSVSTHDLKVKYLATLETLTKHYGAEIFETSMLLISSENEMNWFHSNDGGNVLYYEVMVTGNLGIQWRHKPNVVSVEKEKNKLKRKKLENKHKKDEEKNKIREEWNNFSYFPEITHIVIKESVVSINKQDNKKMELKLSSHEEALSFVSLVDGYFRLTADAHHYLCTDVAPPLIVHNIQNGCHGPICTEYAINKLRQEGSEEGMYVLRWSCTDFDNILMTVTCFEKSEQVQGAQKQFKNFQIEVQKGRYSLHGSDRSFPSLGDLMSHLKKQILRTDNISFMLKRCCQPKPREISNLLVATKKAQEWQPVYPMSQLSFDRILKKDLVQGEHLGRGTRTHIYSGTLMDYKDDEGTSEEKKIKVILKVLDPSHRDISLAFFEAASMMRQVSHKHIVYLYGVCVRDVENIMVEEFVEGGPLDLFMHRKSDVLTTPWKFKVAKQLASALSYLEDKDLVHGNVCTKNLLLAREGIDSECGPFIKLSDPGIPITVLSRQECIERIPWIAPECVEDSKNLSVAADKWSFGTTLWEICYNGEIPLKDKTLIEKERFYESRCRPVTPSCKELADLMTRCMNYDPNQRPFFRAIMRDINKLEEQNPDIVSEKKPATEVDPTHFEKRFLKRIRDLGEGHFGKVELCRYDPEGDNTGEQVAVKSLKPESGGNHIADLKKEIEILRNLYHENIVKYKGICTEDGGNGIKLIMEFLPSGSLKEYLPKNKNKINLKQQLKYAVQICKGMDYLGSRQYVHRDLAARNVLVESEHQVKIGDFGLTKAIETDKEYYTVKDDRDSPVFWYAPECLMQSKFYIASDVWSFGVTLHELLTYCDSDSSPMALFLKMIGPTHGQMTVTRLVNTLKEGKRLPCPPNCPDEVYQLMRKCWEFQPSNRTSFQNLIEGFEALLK
T5 sequence (Q16513 whole entry): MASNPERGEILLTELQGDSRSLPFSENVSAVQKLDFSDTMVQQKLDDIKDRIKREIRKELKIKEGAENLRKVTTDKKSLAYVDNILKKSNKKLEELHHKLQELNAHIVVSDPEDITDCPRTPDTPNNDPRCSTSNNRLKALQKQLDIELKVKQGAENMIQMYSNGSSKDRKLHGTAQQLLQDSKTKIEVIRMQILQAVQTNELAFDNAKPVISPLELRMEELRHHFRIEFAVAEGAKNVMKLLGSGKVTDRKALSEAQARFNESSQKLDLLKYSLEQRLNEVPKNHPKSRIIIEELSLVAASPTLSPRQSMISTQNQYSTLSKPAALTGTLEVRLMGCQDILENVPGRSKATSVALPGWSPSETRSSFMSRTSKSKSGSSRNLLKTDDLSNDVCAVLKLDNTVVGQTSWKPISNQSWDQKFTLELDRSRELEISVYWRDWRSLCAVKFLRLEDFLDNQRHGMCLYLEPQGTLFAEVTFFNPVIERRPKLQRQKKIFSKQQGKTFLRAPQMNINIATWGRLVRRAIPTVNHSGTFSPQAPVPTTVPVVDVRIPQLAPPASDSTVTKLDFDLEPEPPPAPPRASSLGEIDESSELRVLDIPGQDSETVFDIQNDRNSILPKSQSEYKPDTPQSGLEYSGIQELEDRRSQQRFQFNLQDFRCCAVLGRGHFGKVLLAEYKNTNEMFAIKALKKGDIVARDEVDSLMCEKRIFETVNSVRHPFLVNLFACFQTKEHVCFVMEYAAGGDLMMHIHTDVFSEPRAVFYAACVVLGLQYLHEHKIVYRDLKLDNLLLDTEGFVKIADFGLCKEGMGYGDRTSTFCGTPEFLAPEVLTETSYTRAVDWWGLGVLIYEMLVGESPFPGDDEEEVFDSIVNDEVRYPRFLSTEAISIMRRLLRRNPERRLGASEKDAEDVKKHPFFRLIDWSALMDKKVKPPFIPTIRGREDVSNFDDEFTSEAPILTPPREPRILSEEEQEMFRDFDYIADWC
T9 sequence (Q9H422 whole entry): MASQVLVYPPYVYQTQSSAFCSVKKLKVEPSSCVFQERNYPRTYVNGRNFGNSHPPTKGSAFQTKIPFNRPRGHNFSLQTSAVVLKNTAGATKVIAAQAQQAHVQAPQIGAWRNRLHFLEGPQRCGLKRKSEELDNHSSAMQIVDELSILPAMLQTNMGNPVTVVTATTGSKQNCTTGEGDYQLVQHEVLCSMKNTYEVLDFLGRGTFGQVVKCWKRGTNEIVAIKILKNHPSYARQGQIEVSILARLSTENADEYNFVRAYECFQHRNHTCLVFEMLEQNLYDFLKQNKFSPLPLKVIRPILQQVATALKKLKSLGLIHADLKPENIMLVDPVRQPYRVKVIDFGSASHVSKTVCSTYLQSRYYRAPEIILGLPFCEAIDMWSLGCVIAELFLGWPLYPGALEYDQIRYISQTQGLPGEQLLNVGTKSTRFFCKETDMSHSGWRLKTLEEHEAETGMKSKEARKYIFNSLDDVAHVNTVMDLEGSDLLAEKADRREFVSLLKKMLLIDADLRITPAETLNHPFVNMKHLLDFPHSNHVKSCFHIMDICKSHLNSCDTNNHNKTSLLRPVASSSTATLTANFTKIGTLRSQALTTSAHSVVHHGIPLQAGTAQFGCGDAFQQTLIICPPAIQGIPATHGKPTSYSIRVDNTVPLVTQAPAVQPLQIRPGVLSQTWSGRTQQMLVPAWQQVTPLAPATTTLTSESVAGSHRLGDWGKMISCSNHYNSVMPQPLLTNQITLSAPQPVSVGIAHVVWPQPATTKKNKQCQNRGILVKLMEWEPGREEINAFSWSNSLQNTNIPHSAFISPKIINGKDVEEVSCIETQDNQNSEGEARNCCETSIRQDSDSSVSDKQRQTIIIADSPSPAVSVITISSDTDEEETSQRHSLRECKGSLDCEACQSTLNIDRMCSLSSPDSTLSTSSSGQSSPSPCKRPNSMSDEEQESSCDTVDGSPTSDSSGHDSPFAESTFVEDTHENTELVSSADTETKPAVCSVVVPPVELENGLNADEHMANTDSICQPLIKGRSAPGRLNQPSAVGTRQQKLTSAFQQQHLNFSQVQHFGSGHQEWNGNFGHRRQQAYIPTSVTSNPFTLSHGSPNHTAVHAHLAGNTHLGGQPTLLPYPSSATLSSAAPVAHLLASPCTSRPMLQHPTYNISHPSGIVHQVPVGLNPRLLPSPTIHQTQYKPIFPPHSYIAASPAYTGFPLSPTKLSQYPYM
T6 sequence (O75582 whole entry): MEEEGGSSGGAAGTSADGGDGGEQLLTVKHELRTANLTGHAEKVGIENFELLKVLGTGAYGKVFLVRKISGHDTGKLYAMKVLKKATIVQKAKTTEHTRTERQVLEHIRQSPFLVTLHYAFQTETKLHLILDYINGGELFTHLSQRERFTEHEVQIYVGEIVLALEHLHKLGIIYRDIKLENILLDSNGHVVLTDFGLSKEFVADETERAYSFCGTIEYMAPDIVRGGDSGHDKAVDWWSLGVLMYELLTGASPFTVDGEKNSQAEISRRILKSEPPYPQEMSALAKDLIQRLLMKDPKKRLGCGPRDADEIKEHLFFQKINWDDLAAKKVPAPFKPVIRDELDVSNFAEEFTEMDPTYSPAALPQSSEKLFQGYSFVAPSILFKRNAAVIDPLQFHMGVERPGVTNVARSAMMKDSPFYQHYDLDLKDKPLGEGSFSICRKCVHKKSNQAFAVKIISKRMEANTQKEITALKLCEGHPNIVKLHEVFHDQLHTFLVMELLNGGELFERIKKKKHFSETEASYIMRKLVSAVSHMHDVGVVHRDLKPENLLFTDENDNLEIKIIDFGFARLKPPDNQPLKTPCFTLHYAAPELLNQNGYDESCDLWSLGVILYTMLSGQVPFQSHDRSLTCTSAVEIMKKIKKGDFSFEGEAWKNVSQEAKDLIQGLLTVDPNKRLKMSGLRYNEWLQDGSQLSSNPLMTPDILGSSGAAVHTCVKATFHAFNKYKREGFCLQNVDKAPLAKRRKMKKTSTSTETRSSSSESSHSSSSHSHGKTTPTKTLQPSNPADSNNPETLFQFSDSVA
T2 sequence (Q86UE8 whole entry): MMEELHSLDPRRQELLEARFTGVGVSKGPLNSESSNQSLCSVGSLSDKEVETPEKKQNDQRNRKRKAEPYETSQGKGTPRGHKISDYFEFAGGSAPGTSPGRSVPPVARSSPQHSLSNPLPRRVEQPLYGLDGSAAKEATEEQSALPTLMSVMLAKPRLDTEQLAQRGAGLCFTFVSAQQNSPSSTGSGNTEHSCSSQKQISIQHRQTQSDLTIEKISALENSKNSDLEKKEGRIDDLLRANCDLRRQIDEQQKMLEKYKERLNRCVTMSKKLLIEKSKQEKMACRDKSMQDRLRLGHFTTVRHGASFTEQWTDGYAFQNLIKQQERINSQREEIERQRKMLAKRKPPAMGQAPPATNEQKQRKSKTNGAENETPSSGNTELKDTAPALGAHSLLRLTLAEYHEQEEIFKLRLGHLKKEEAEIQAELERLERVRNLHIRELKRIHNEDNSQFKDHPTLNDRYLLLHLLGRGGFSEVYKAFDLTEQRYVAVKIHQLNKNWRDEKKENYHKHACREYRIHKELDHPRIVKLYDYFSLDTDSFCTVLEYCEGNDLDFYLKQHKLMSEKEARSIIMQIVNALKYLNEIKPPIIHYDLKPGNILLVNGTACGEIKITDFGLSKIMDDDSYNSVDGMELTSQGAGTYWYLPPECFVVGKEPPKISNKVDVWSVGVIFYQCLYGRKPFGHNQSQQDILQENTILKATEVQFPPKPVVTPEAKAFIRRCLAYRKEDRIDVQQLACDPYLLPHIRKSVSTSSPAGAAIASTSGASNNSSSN

For `N#CCc1ccc(Nc2nc(NCCCN)cc(Nc3cc(C4CC4)[nH]n3)n2)cc1` [KAM], the “median Log10 fold change” value (MELK; 0.001 uM KAM) was -0.02147, the “median Log10 fold change” value (MELK; 0.01 uM KAM) was 0.005817 and the “median Log10 fold change” value (MELK; 0.1 uM KAM) was -0.06915. The “median Log10 fold change” value (MELK; 1 uM KAM) was -0.3528, the “median Log10 fold change” value (MELK; 10 uM KAM) was -0.5701 and the IC50 (MELK; [1]) was 0.94 µM. The IC50 (TLK2; [2]) was over 10 µM, the “0.001 uM KAM” value (TLK2; relative to 0 uM KAM = 0) was -0.002954 and the “0.01 uM KAM” value (TLK2; relative to 0 uM KAM = 0) was -0.03195. For the same compound, the “0.1 uM KAM” value (TLK2; relative to 0 uM KAM = 0) was -0.07515, the “1 uM KAM” value (TLK2; relative to 0 uM KAM = 0) was 0.001633 and the “10 uM KAM” value (TLK2; relative to 0 uM KAM = 0) was -0.09222. The “median Log10 fold change” value (TAOK1; 0.001 uM KAM) was 0.00525, the “median Log10 fold change” value (TAOK1; 0.01 uM KAM) was 0.00511 and the “median Log10 fold change” value (TAOK1; 0.1 uM KAM) was -0.09468. For the same compound, the “median Log10 fold change” value (TAOK1; 1 uM KAM) was -0.2373, the “median Log10 fold change” value (TAOK1; 10 uM KAM) was -0.3152 and the IC50 (TAOK1; [1]) was 4.15 µM. The IC50 (EPHA2; [2]) was over 10 µM, the “0.001 uM KAM” value (EPHA2; relative to 0 uM KAM = 0) was -0.04778 and the “0.01 uM KAM” value (EPHA2; relative to 0 uM KAM = 0) was 0.0608. For the same compound, the “0.1 uM KAM” value (EPHA2; relative to 0 uM KAM = 0) was 0.1233, the “1 uM KAM” value (EPHA2; relative to 0 uM KAM = 0) was 0.3139 and the “10 uM KAM” value (EPHA2; relative to 0 uM KAM = 0) was 0.0956. The IC50 (PKN2; [2]) was over 10 µM, the “0.001 uM KAM” value (PKN2; relative to 0 uM KAM = 0) was -0.006639 and the “0.01 uM KAM” value (PKN2; relative to 0 uM KAM = 0) was 0.00337. The “0.1 uM KAM” value (PKN2; relative to 0 uM KAM = 0) was -0.04124, the “1 uM KAM” value (PKN2; relative to 0 uM KAM = 0) was -0.08858 and the “10 uM KAM” value (PKN2; relative to 0 uM KAM = 0) was -0.1344. The “median Log10 fold change” value (RPS6KA5; 0.001 uM KAM) was 0.02456, the “median Log10 fold change” value (RPS6KA5; 0.01 uM KAM) was -0.007608 and the “median Log10 fold change” value (RPS6KA5; 0.1 uM KAM) was -0.1303. The “median Log10 fold change” value (RPS6KA5; 1 uM KAM) was -0.3238, the “median Log10 fold change” value (RPS6KA5; 10 uM KAM) was -0.3743 and the IC50 (RPS6KA5; [1]) was 1.19 µM. The “median Log10 fold change” value (MAP3K1; 0.001 uM KAM) was -0.0387, the “median Log10 fold change” value (MAP3K1; 0.01 uM KAM) was -0.001908 and the “median Log10 fold change” value (MAP3K1; 0.1 uM KAM) was -0.0773. The “median Log10 fold change” value (MAP3K1; 1 uM KAM) was -0.1722, the “median Log10 fold change” value (MAP3K1; 10 uM KAM) was -0.3697 and the IC50 (MAP3K1; [1]) was 4.53 µM. For the same compound, the “median Log10 fold change” value (JAK1; 0.001 uM KAM) was -0.0004094, the “median Log10 fold change” value (JAK1; 0.01 uM KAM) was 0.001552 and the “median Log10 fold change” value (JAK1; 0.1 uM KAM) was -0.1118. For the same compound, the “median Log10 fold change” value (JAK1; 1 uM KAM) was -0.4812, the “median Log10 fold change” value (JAK1; 10 uM KAM) was -0.5497 and the IC50 (JAK1; [1]) was 0.518 µM. The IC50 (HIPK3; [2]) was over 10 µM, the “0.001 uM KAM” value (HIPK3; relative to 0 uM KAM = 0) was -0.01362 and the “0.01 uM KAM” value (HIPK3; relative to 0 uM KAM = 0) was -0.04323. For the same compound, the “0.1 uM KAM” value (HIPK3; relative to 0 uM KAM = 0) was -0.04392, the “1 uM KAM” value (HIPK3; relative to 0 uM KAM = 0) was -0.1209 and the “10 uM KAM” value (HIPK3; relative to 0 uM KAM = 0) was -0.16. For the same compound, the IC50 (OBSCN; [2]) was over 10 µM, the “0.001 uM KAM” value (OBSCN; relative to 0 uM KAM = 0) was -0.03363 and the “0.01 uM KAM” value (OBSCN; relative to 0 uM KAM = 0) was 0.02355. For the same compound, the “0.1 uM KAM” value (OBSCN; relative to 0 uM KAM = 0) was -0.066, the “1 uM KAM” value (OBSCN; relative to 0 uM KAM = 0) was -0.08935 and the “10 uM KAM” value (OBSCN; relative to 0 uM KAM = 0) was -0.04979. The IC50 (PRKACA; [2]) was over 10 µM, the “0.001 uM KAM” value (PRKACA; relative to 0 uM KAM = 0) was 0.01517 and the “0.01 uM KAM” value (PRKACA; relative to 0 uM KAM = 0) was -0.007672. The “0.1 uM KAM” value (PRKACA; relative to 0 uM KAM = 0) was 0.08573, the “1 uM KAM” value (PRKACA; relative to 0 uM KAM = 0) was 0.0122 and the “10 uM KAM” value (PRKACA; relative to 0 uM KAM = 0) was 0.04616. The “median Log10 fold change” value (CDK5; 0.001 uM KAM) was 0.003574, the “median Log10 fold change” value (CDK5; 0.01 uM KAM) was 0.001841 and the “median Log10 fold change” value (CDK5; 0.1 uM KAM) was -0.2018. For the same compound, the “median Log10 fold change” value (CDK5; 1 uM KAM) was -0.5013, the “median Log10 fold change” value (CDK5; 10 uM KAM) was -0.5902 and the IC50 (CDK5; [1]) was 0.298 µM.
